Data as given in publication PMC8746970, “Determination of the Peptide AWRK6 in Rat Plasma by Liquid Chromatography-Tandem Mass Spectrometry (LC-MS/MS) and Its Application to Pharmacokinetics” (Molecules, 2021).
Like-named read-outs stand apart in the source and are kept apart here. No end group written: not given here.

Experiment: Pharmacokinetic study of AWRK6 in rats after intraperitoneal or intravenous injection, plasma LC-MS/MS
Assay type: in vivo, rat
Conditions: for AUC(0-inf) / Cmax / Tmax / CL/F / MRT / Vd/F / half-life / AUC(0-t) / bioavailability: rat; for CL/F: read-out: CLz/F (converted); for MRT: read-out: MRT(0–t); for Vd/F: read-out: Vz/F; for half-life: read-out: t1/2z (converted); for bioavailability: from AUC, read-out: F (absolute bioavailability)
Description: The samples were analyzed on a LC-MS/MS system consisting of an Agilent 1290 Infinity II UHPLC System coupled with an Agilent 6460 Triple Quadrupole Mass Spectrometer with an electrospray ionisation source (ESI). The Agilent MassHunter Workstation Qualitative Analysis B.06.00 (Agilent Technologies, Santa Clara, CA, USA) software was used. Chromatographic separation was performed on a Supersil ODS2 column (4.6 mm × 250 mm, 5 μm, Dalian Elite Analytical Instruments, Dalian, China). The separation conditions were 30 °C by using a FA-ACN (0.1:99.9, v/v, A) and FA-water (0.1:99.9, v/v, B) solutions at a flow rate of 0.5 mL/min. The sample injection volume was 20 μL and the autosampler was kept at 4 °C. The initial eluent A-B (20:80, v/v) was changed to A-B (30:70, v/v) in 4 min and subsequently changed to A-B (90:10, v/v) in the next 3 min in a linear gradient form and maintained at this ratio for another 1 min. PMB was used as the IS. MS analysis was carried out in the multiple reaction monitoring (MRM) mode with following operation parameters: capillary voltage, 3.5 kV; gas temperature, 325 °C; nebulizer gas pressure, 35 psi; sheath gas, 11 L/min, 350 °C; fragmentor voltages, 155 V for AWRK6 and 75 V for IS; collision energy (CE), 80 eV for AWRK6 and 40 eV for IS; precursor-to-product ion transition, m/z: 533.3→84.1 for AWRK6 and m/z: 402.1→101.1 for IS.
The AWRK6 and IS were dissolved in water at 1.0 mg/mL for stock solution. The AWRK6 calibration standards at 0.05, 0.1, 0.5, 1, 2, 5, and 10 μg/mL were prepared by mixing 50 μL of working solution and 100 μL of blank plasma individually. QC samples of AWRK6 at 0.1, 0.5, and 5 μg/mL were prepared by the same method. The thawed plasma samples (100 μL) were mixed with 50 μL water (or QC), 50 μL IS (1 μg/mL), and 20 μL FA-water (25:75, v/v). A combination of plasma precipitation and liquid–liquid extraction was applied for the extraction of AWRK6 in samples. After adding 200 μL methanol and 100 μL dichloromethane, the mixtures were vortexed for 30 s and centrifuged at 14,000 g for 10 min. The supernatant was filtered by 0.22 μm membrane for LC-MS/MS analysis.
SPF-grade male Sprague Dawley rats (280–320 g, 8 weeks old) were purchased from Liaoning Changsheng Biotechology (Liaoning, China). The rats were housed under a controlled environment (temperature: 25 ± 2 °C; relative humidity: 55 ± 10%; alternating natural light/dark cycles) with free access to food and water unless otherwise noted. The study was approved by the Laboratory Animal Welfare and Ethical Review Board of China Medical University (CMU2019089, 8 March 2019). According to the previous study, the rats was administrated with AWRK6 dissolved in saline intraperitoneally at 2.35, 4.7, and 9.4 mg/kg bodyweight and intravenously at 4.7 mg/kg after being fasted for 12 h. The intravenous doing was administered via the tail vein of the rats. Blood samples were collected from orbital venous plexus at 0.083, 0.167, 0.25, 0.5, 1, 1.5, 2, 3, 4, 6, 8, and 10 h using heparin tubes after administration, followed by centrifugation at 4000 g for 10 min at 4 °C and storage at −80 °C. The obtained data were analyzed using DAS 2.0 software (Anhui Provincial Center for Drug Clinical Evaluation). The absolute bioavailability of AWRK6 for intraperitoneal administration was calculated by the following formula:(1) F=AUCi.p.×Di.v./Di.p.×AUCi.v.×100%

[1] = male Sprague Dawley rats, single i.v. 4.700 mg/kg (tail vein), plasma, LC-MS/MS, mean ± SD, n = 6
[2] = ip, 2.35 mg/kg, male Sprague Dawley rats, single i.p. 2.350 mg/kg, plasma, LC-MS/MS, mean ± SD, n = 6
[3] = ip, 4.7 mg/kg, male Sprague Dawley rats, single i.p. 4.700 mg/kg, plasma, LC-MS/MS, mean ± SD, n = 6
[4] = ip, 9.4 mg/kg, male Sprague Dawley rats, single i.p. 9.400 mg/kg, plasma, LC-MS/MS, mean ± SD, n = 6
[5] = iv, 4.7 mg/kg, male Sprague Dawley rats, single i.v. 4.700 mg/kg (tail vein), plasma, LC-MS/MS, mean ± SD, n = 6
[6] = rats, two-compartment model, weight coefficient of 1, DAS 2.0

- VRT(0–t) (male Sprague Dawley rats, single i.p. 2.350 mg/kg, plasma, LC-MS/MS, mean ± SD, n = 6): 2.549 ± 1.480 h^2
- VRT(0–t) (male Sprague Dawley rats, single i.p. 4.700 mg/kg, plasma, LC-MS/MS, mean ± SD, n = 6): 3.859 ± 0.904 h^2
- VRT(0–t) (male Sprague Dawley rats, single i.p. 9.400 mg/kg, plasma, LC-MS/MS, mean ± SD, n = 6): 4.366 ± 1.439 h^2
- CLz/F [1]: 28.32 ± 3.65 mL/min/kg
- Vz/F [1]: 4.884 ± 1.736 L/kg
- AUC(0-inf) [2]: 851 ± 221 ng·h/mL
- Cmax [2]: 217 ± 10 ng/mL
- Tmax [2]: 1.17 ± 0.258 h
- CL/F [2]: 48 mL/min/kg
- MRT [2]: 2.26 ± 0.488 h
- Vd/F [2]: 10.9 ± 3.96 L/kg
- half-life [2]: 2.95 ± 2.05 h
- AUC(0-inf) [3]: 1590 ± 275 ng·h/mL
- AUC(0-t) [3]: 1360 ± 176 ng·h/mL
- Cmax [3]: 454 ± 48 ng/mL
- Tmax [3]: 1.25 ± 0.274 h
- CL/F [3]: 50.6 mL/min/kg
- MRT [3]: 2.49 ± 0.227 h
- Vd/F [3]: 12.3 ± 4.85 L/kg
- half-life [3]: 2.94 ± 1.4 h
- AUC(0-inf) [4]: 2910 ± 356 ng·h/mL
- AUC(0-t) [4]: 2630 ± 236 ng·h/mL
- Cmax [4]: 888 ± 46 ng/mL
- Tmax [4]: 1.21 ± 0.217 h
- CL/F [4]: 54.4 mL/min/kg
- MRT [4]: 2.52 ± 0.292 h
- Vd/F [4]: 12.7 ± 3.37 L/kg
- half-life [4]: 2.78 ± 1.02 h
- AUC(0-inf) [5]: 2800 ± 333 ng·h/mL
- AUC(0-t) [5]: 2600 ± 277 ng·h/mL
- Cmax [5]: 2130 ± 174 ng/mL
- MRT [5]: 1.73 ± 0.261 h
- half-life [5]: 1.98 ± 0.583 h
- bioavailability (plasma, ip, 2.35 mg/kg, male Sprague Dawley rats, i.p. 2.350 mg/kg versus i.v. 4.700 mg/kg): 48.8%
- bioavailability (plasma, ip, 4.7 mg/kg, male Sprague Dawley rats, i.p. 4.700 mg/kg versus i.v. 4.700 mg/kg): 52.5%
- bioavailability (plasma, ip, 9.4 mg/kg, male Sprague Dawley rats, i.p. 9.400 mg/kg versus i.v. 4.700 mg/kg): 50.6%
- time after which plasma concentration was below the LLOQ (rats, after intraperitoneal injection, LLOQ 0.050 μg/mL): ~10 h
- time at which AWRK6 in plasma was cleared (rats, after intravenous injection 4.7 mg/kg): about 10 h
- time at which AWRK6 concentrations in rat plasma peaked (rats, intraperitoneal injections at 2.35, 4.7 and 9.4 mg/kg bodyweight): about 1.2 h
- transport rate constant K12 [6]: 2.55 h⁻¹
- transport rate constant K21 [6]: 1.67 h⁻¹
Substance: SWVGKHGKKFGLKKHKKH-NH2 (C-terminus assumed) [AWRK6]
